We go through 43 compounds from ChEMBL document CHEMBL1122943, “Cardiotonic agents. 2. Synthesis and structure-activity relationships of 4,5-dihydro-6-[4-(1H-imidazol-1-yl)phenyl]-3(2H)-pyridazinones: a new class of positive inotropic agents” (1985).

Experiment [1] concerns Canis familiaris. The experiment is described as follows: Compound was evaluated for 50% increase of myocardial contractility in a conscious dog model orally administered. The experiment is classed as functional, Canis lupus familiaris, Myocardium.
Experiment [2] has as its system Canis familiaris. The experiment in a line: Compound was evaluated for 40-60% increase of myocardial contractility in a conscious dog model orally administered. The format is functional, Canis lupus familiaris, Myocardium.
For experiment [3], the system named is Canis familiaris. The experiment in a line: Evaluated for 50% increase of myocardial contractility in anesthetized dog, administered intravenously. The experiment is classed as functional, Canis lupus familiaris, Myocardium.
The subject of experiment [4] is Canis familiaris. The experiment in a line: Percent increase in contractility was evaluated by effect of Cardiotonic agents on myocardial contractility in conscious dog administered orally at dose of 3.1 mg/kg. The format is functional, Canis lupus familiaris, Myocardium. Particulars: route oral.
For experiment [5], the system named is Canis familiaris. The experiment is described as follows: Percent increase in contractility was evaluated by effect of Cardiotonic agents on myocardial contractility in conscious dog administered orally at dose of 10 mg/kg. The format is functional, Canis lupus familiaris, Myocardium. Particulars: route oral.
The subject of experiment [6] is Canis familiaris. The experiment in a line: Percent increase in heart rate was evaluated by effect of Cardiotonic agents on myocardial contractility in conscious dog administered orally at dose of 10 mg/kg. The format is functional, Canis lupus familiaris. Particulars: route oral.
The subject of experiment [7] is Canis familiaris. The experiment is described as follows: Percent increase in heart rate was evaluated by effect of Cardiotonic agents on myocardial contractility in conscious dog administered orally at dose of 3.1 mg/kg. Particulars: route oral. The experiment is classed as functional, Canis lupus familiaris.
Experiment [8] concerns Canis familiaris. The experiment in a line: Compound was evaluated for 40-60% increase of myocardial contractility in a conscious dog model perorally administered. The format is functional, Canis lupus familiaris, Myocardium.
The subject of experiment [9] is Canis familiaris. The experiment in a line: Compound was evaluated for 40-60% increase of myocardial contractility in a conscious dog model orally administered. The format is functional, Canis lupus familiaris, Myocardium.
Experiment [10] deals with Canis familiaris. The experiment in a line: Cardiovascular activity (heart rate) (0.31 ug/kg) in dog after beta-blockade. The experiment is classed as functional, Canis lupus familiaris.
The subject of experiment [11] is Canis familiaris. The experiment in a line: Cardiovascular activity (blood pressure) (0.31 ug/kg)in dog after beta-blockade. The experiment is classed as functional, Canis lupus familiaris.
The subject of experiment [12] is Canis familiaris. The experiment is described as follows: Cardiovascular activity (heart rate) (0.31 ug/kg) in dog before beta-blockade. The format is functional, Canis lupus familiaris.
Experiment [13] deals with Canis familiaris. The experiment is described as follows: Cardiovascular activity (blood pressure) (0.31 ug/kg) in dog before beta-blockade. The format is functional, Canis lupus familiaris.
For experiment [14], the system named is Canis familiaris. The experiment in a line: Cardiovascular activity (contractility) (0.31 ug/kg) in dog after beta-blockade. The experiment is classed as functional, Canis lupus familiaris.
Experiment [15] deals with Canis familiaris. The experiment in a line: Cardiovascular activity (contractility) (0.31 ug/kg) in dog before beta-blockade. The experiment is classed as functional, Canis lupus familiaris.
The test system of experiment [16] is Canis familiaris. The experiment is described as follows: Percent increase in contractility was evaluated by effect of Cardiotonic agents on myocardial contractility in conscious dog administered orally at dose of 1.0 mg/kg. The experiment is classed as functional, Canis lupus familiaris, Myocardium. Particulars: route oral.
Experiment [17] concerns Canis familiaris. The experiment in a line: Percent increase in heart rate was evaluated by effect of Cardiotonic agents on myocardial contractility in conscious dog administered orally at dose of 1.0 mg/kg. The format is functional, Canis lupus familiaris. Particulars: route oral.
Experiment [18] has as its system Canis familiaris. The experiment in a line: Percent increase in heart rate was evaluated by effect of Cardiotonic agents on myocardial contractility in conscious dog administered orally at dose of 0.31 mg/kg; Value ranges from(10-15). The experiment is classed as functional, Canis lupus familiaris. Particulars: route oral.
The subject of experiment [19] is Canis familiaris. The experiment in a line: Cardiovascular activity(heart rate) (0.31 mg/kg) in dog after beta-blockade. The format is functional, Canis lupus familiaris.
Experiment [20] deals with Canis familiaris. The experiment in a line: Cardiovascular activity(blood pressure) (0.31 mg/kg) in dog after beta-blockade. The experiment is classed as functional, Canis lupus familiaris.
Experiment [21] has as its system Canis familiaris. The experiment is described as follows: Cardiovascular activity (contractility) (0.31 mg/kg) in dog after beta-blockade. The format is functional, Canis lupus familiaris.
Experiment [22] deals with Canis familiaris. The experiment is described as follows: Cardiovascular activity (contractility) (0.31 mg/kg) in dog before beta-blockade. The experiment is classed as functional, Canis lupus familiaris.
Experiment [23] concerns Canis familiaris. The experiment is described as follows: Percent increase in contractility was evaluated by effect of Cardiotonic agents on myocardial contractility in conscious dog administered orally at dose of 0.31 mg/kg; Value ranges from (10-20). The experiment is classed as functional, Canis lupus familiaris, Myocardium. Particulars: route oral.
In experiment [24] the test system is Canis familiaris. The experiment is described as follows: Cardiovascular activity(heart rate) (0.31 mg/kg) in dog before beta-blockade. The format is functional, Canis lupus familiaris.
Experiment [25] concerns Canis familiaris. The experiment is described as follows: Cardiovascular activity(blood pressure) (0.31 mg/kg) in dog before beta-blockade. The experiment is classed as functional, Canis lupus familiaris.
Experiment [26] deals with Canis familiaris. The experiment is described as follows: Percent increase in heart rate was evaluated by effect of Cardiotonic agents on myocardial contractility in conscious dog administered orally at dose of 0.31 mg/kg. The format is functional, Canis lupus familiaris. Particulars: route oral.
Experiment [27] relates to Canis familiaris. The experiment is described as follows: Percent increase in contractility was evaluated by effect of Cardiotonic agents on myocardial contractility in conscious dog administered orally at dose of 0.1 mg/kg. The format is functional, Canis lupus familiaris, Myocardium. Particulars: route oral.
The subject of experiment [28] is Canis familiaris. The experiment is described as follows: Percent increase in contractility was evaluated by effect of Cardiotonic agents on myocardial contractility in conscious dog administered orally at dose of 0.31 mg/kg. Particulars: route oral. The experiment is classed as functional, Canis lupus familiaris, Myocardium.
The subject of experiment [29] is Canis familiaris. The experiment is described as follows: Percent increase in heart rate was evaluated by effect of Cardiotonic agents on myocardial contractility in conscious dog administered orally at dose of 0.1 mg/kg; Value is not statistically significant. The format is functional, Canis lupus familiaris. Particulars: route oral.

Some results are limits rather than exact numbers.

As for `O=C1CCC(c2cccc(-n3ccnc3)c2)=NN1`, the Dose in [1] is >1 mg/kg.

As to `O=C1CCC(c2ccc(-n3cnc4c3CCCC4)cc2)=NN1`, the Dose is >1 mg/kg in experiment [2] and 0.064 mg/kg in [3].

As to `C[S+]([O-])c1nccn1-c1ccc(C2=NNC(=O)CC2)cc1` (stereo not drawn), the Dose in experiment [2] was 10 mg/kg; in experiment [3], 0.3 mg/kg.

Take `Nc1cc(-c2ccncc2)c[nH]c1=O` [INAMRINONE]: the Increase in experiment [4] is recorded as 6%; in [5], 45%; in [6] it was 18%; in experiment [7] it was 23%. This compound also yielded a Dose in experiment [3] of 0.389 mg/kg.

As to `Cc1nccn1-c1ccc(-c2ccc(O)nn2)cc1`, the Dose in experiment [3] was determined as 0.1 mg/kg.

For the compound `Oc1ccc(-c2ccc(-n3ccnc3)cc2)nn1`, the Dose in experiment [3] was found to be 0.1 mg/kg.

Consider `CSc1ccc(C(=O)c2[nH]c(=O)[nH]c2C)cc1` [ENOXIMONE], for which the Dose in experiment [3] is 0.283 mg/kg.

As for `O=C1CCC(c2ccc(-n3cncn3)cc2)=NN1`, the Dose in experiment [2] was 1 mg/kg.

Regarding `CN1N=C(c2ccc(-n3ccnc3)cc2)CCC1=O`, in [3], the Dose was >1 mg/kg.

For `O=C1NN=C(c2ccc(-n3ccnc3)cc2)C2CCCCC12` (stereo not drawn), in [3], the Dose came out at 1 mg/kg.

As for `O=C1CCC(c2ccc(-n3cccc3)cc2)=NN1`, in experiment [2], the Dose amounted to 10 mg/kg.

For the compound `Cc1nccn1-c1ccc(C2=NNC(=O)CC2)cc1`, the Dose in experiment [8] was determined as 1 mg/kg; in experiment [3], 0.3 mg/kg.

Regarding `O=C1CCC(c2ccc(-n3cccn3)cc2)=NN1`, in [9], the Dose was >3.1 mg/kg.

As to `O=C1CCC(c2ccc(-n3cnnc3)cc2)=NN1`, in experiment [2], the Dose was >3.1 mg/kg.

For `CCc1nc(C)c(Br)n1-c1ccc(-c2ccc(O)nn2)cc1`, the Dose in [3] came to 0.2 mg/kg.

In the case of `NC(=O)c1cc(-c2ccc(-n3ccnc3)cc2)nnc1O`, the Dose in experiment [3] is >1 mg/kg.

In the case of `CCc1nc(C)cn1-c1ccc(C2=NNC(=O)CC2)cc1`, the Dose in [2] was <3.1 mg/kg; in [3] it was 0.1 mg/kg.

On to `Cc1cc(O)nnc1-c1ccc(-n2cnc3c2CCCC3)cc1`, for which the Dose in [3] was >0.1 mg/kg.

As for `O=C(O)c1cc(-c2ccc(-n3ccnc3)cc2)nnc1O`, the Dose in experiment [3] is >1 mg/kg.

In the case of `CCC1CC(=O)NN=C1c1ccc(-n2ccnc2)cc1` (stereo not drawn), in experiment [3], the Dose is 1 mg/kg.

Consider `COc1cc([S+](C)[O-])ccc1-c1nc2cccnc2[nH]1` (stereo not drawn) [SULMAZOLE], for which the results for the Increase in experiment [5] and in [6] were 57% and 61%, respectively. In addition, the Dose in experiment [3] worked out at 0.435 mg/kg.

Take `CC(C)NCC(O)c1ccc(O)c(O)c1` (stereo not drawn) [ISOPROTERENOL]: the Change is listed as 0.4% in experiment [10]; 1% in experiment [11]; 31% in experiment [12]; -6.6% in experiment [13]; 10.4% in experiment [14]; 96% in [15].

Turning to `Cn1nc(-c2ccc(-n3ccnc3)cc2)ccc1=O`, in [3], the Dose is >1 mg/kg.

`O=C1CCC(c2ccc(-n3ccnc3)cc2)=NN1Cc1ccccc1` came in with a Dose in experiment [2] of 10 mg/kg.

In the case of `CSc1nccn1-c1ccc(C2=NNC(=O)CC2)cc1`, in experiment [8], the Dose amounted to 10 mg/kg.

For the compound `Cc1[nH]c(=O)c(C#N)cc1-c1ccncc1` [MILRINONE], the Increase worked out at 45% in experiment [16] and 60% in experiment [17]. In experiment [3], the Dose came to 0.037 mg/kg.

For `O=C1CCC(c2ccc(-n3ccnc3)cc2)=NN1` [IMAZODAN], the Dose in experiment [9] is 1 mg/kg; in [3], 0.045 mg/kg. Also, the Increase in experiment [18] is recorded as 10%; in experiment [23] it was 10%; in experiment [16], 40%; in experiment [17] it was 29%. Besides, the Change in [19] is 5.4%; in experiment [20], -2.8%; in experiment [21], 62.4%; in experiment [22], 82%; in experiment [24], 24%; in experiment [25] it was -4.2%.

The compound `Nc1cc(-c2ccc(-n3ccnc3)cc2)nnc1O` came in with a Dose in experiment [3] of 0.3 mg/kg.

On to `CCc1nc(C)cn1-c1ccc(-c2ccc(O)nn2)cc1`, for which, in experiment [3], the Dose turned out to be 0.3 mg/kg.

As to `CC1CC(=O)NN=C1c1ccc(-n2cnc3c2CCCC3)cc1` (stereo not drawn) [TETRAHYDROBENXIMIDAZOLE], the Dose in experiment [2] is 0.3 mg/kg; in experiment [3], 0.02 mg/kg.

Regarding `CS(=O)(=O)c1nccn1-c1ccc(C2=NNC(=O)CC2)cc1`, the Dose in experiment [2] is >1 mg/kg.

`Oc1ccc(-c2cccc(-n3ccnc3)c2)nn1` displayed a Dose in experiment [3] of 0.2 mg/kg.

As to `CC(=O)OCCN1N=C(c2ccc(-n3ccnc3)cc2)CCC1=O`, the Dose in [3] was >1 mg/kg.

In experiment [3], `Cc1cc(-c2ccc(-n3ccnc3)cc2)nnc1O` showed a Dose of 0.3 mg/kg.

For the compound `O=c1ccc(-c2ccc(-n3ccnc3)cc2)nn1CCO`, the Dose in experiment [3] is >1 mg/kg.

Turning to `Oc1ccc(-c2ccc(-n3cnc4c3CCCC4)cc2)nn1`, the Dose in experiment [3] is 0.1 mg/kg.

`CC1CC(c2ccc(-n3ccnc3)cc2)=NNC1=O` (stereo not drawn) gave a Dose in [3] of 1 mg/kg.

For `O=C1CCC(c2ccc(-n3cnc4ccccc43)cc2)=NN1`, the Dose in experiment [2] was determined as 3.1 mg/kg; in experiment [3], 0.1 mg/kg.

For the compound `O=C1CCC(c2ccc(-n3ccnc3S)cc2)=NN1`, the Dose in [9] is >10 mg/kg.

As to `NNC(=O)c1cc(-c2ccc(-n3ccnc3)cc2)nnc1O`, in [3], the Dose is 1 mg/kg.

Turning to `Cc1cc(O)nnc1-c1ccc(-n2ccnc2)cc1`, in experiment [3], the Dose is >1 mg/kg.

In [3], `O=C1CCC(c2ccc(-n3cnc(CO)c3)cc2)=NN1` registered a Dose of 0.034 mg/kg.

As for `CC1CC(O)=NN=C1c1ccc(-n2ccnc2)cc1` (stereo not drawn) [CI-930], the results for the Dose in experiment [9] and in [3] were 0.1 mg/kg and 0.013 mg/kg, respectively. The Increase in [26] was determined as 49%; in [27], 42%; in experiment [28] it was 70%; in [29], 34%.
